system: FLU A (PR/8/34); experiment: Flu A Neuraminidase Antiviral Assay; type: cell-based; conditions: not given

How did the EC50 turn out when CN1C(=O)c2c(O)c(=O)ccn2N2C(c3ccccc3)CCCC12 (single isomer, unassigned) [Compound 1A, 7-hydroxy-5-methyl-1-phenyl-1,2,3,4,4a,5-hexahydrodipyrido[1,2-b:2′,1′-f][1,2,4]triazine-6,8-dione] was run?
The EC50 was greater than 8100 nM.

With CN1C(=O)c2c(O)c(=O)ccn2N2C(c3ccccc3)CCCC12 (single isomer, unassigned) [Compound 1B, 7-hydroxy-5-methyl-1-phenyl-1,2,3,4,4a,5-hexahydrodipyrido[1,2-b:2′,1′-f][1,2,4]triazine-6,8-dione] as the compound, how does the EC50 read?
Its EC50 is 39.6 nM.

With CN1C(=O)c2c(O)c(=O)ccn2N2C(c3ccc(F)cc3)CCCC12 (single isomer, unassigned) [Compound 2A, 1-(4-fluorophenyl)-7-hydroxy-5-methyl-1,2,3,4,4a,5-hexahydrodipyrido[1,2-b:2′,1′-f][1,2,4]triazine-6,8-dione] as the compound, how does the EC50 read?
The EC50 was 109 nM.

For CN1C(=O)c2c(O)c(=O)ccn2N2C(c3ccc(F)cc3)CCCC12 (single isomer, unassigned) [Compound 2B, 1-(4-fluorophenyl)-7-hydroxy-5-methyl-1,2,3,4,4a,5-hexahydrodipyrido[1,2-b:2′,1′-f][1,2,4]triazine-6,8-dione], which EC50 is on record?
Its EC50 is 5920 nM.

How did the EC50 turn out when CN1C(=O)c2c(O)c(=O)ccn2N2C(c3ccc(Cl)c(F)c3)CCCC12 (single isomer, unassigned) [Compound 3A, 1-(4-chloro-3-fluorophenyl)-7-hydroxy-5-methyl-1,2,3,4,4a,5-hexahydrodipyrido[1,2-b:2′,1′-f][1,2,4]triazine-6,8-dione] was run?
Its EC50 is 1020 nM.

CN1C(=O)c2c(O)c(=O)ccn2N2C(c3ccc(Cl)c(F)c3)CCCC12 (single isomer, unassigned) [Compound 3B, 1-(4-chloro-3-fluorophenyl)-7-hydroxy-5-methyl-1,2,3,4,4a,5-hexahydrodipyrido[1,2-b:2′,1′-f][1,2,4]triazine-6,8-dione] was tested. Which EC50 did it give?
Its EC50 is greater than 2700 nM.

How did the EC50 turn out when COCCN1C(=O)c2c(O)c(=O)ccn2N2C(c3ccc(F)cc3)CCCC12 (single isomer, unassigned) [Compound 4B, 1-(4-fluorophenyl)-7-hydroxy-5-(2-methoxyethyl)-1,2,3,4,4a,5-hexahydrodipyrido[1,2-b:2′,1′-f][1,2,4]triazine-6,8-dione] was run?
Its EC50 is greater than 8100 nM.

For CN1C(=O)c2c(O)c(=O)ccn2N2C(c3cccc4ccccc34)CCCC12 (single isomer, unassigned) [Compound 5B, 7-hydroxy-5-methyl-1-(naphthalen-1-yl)-1,2,3,4,4a,5-hexahydrodipyrido[1,2-b:2′,1′-f][1,2,4]triazine-6,8-dione], which EC50 is on record?
The EC50 was 1700 nM.

For CC1CC(c2ccccc2)N2C(C1)N(C)C(=O)c1c(O)c(=O)ccn12 (single isomer, unassigned) [Compound 6A, 7-hydroxy-3,5-dimethyl-1-phenyl-1,2,3,4,4a,5-hexahydrodipyrido[1,2-b:2′,1′-f][1,2,4]triazine-6,8-dione], which EC50 is on record?
Its EC50 is 372 nM.

CC1CC(c2ccccc2)N2C(C1)N(C)C(=O)c1c(O)c(=O)ccn12 (single isomer, unassigned) [Compound 6B, 7-hydroxy-3,5-dimethyl-1-phenyl-1,2,3,4,4a,5-hexahydrodipyrido[1,2-b:2′,1′-f][1,2,4]triazine-6,8-dione] was tested. Which EC50 did it give?
The EC50 was 7760 nM.

How did the EC50 turn out when CN1C(=O)c2c(O)c(=O)ccn2N2C(c3c(F)cccc3F)CCCC12 (single isomer, unassigned) [Compound 7A, 1-(2,6-difluorophenyl)-7-hydroxy-5-methyl-1,2,3,4,4a,5-hexahydrodipyrido[1,2-b:2′,1′-f][1,2,4]triazine-6,8-dione] was run?
The EC50 was greater than 8100 nM.

How did the EC50 turn out when CN1C(=O)c2c(O)c(=O)ccn2N2C(c3c(F)cccc3F)CCCC12 (single isomer, unassigned) [Compound 7B, 1-(2,6-difluorophenyl)-7-hydroxy-5-methyl-1,2,3,4,4a,5-hexahydrodipyrido[1,2-b:2′,1′-f][1,2,4]triazine-6,8-dione] was run?
Its EC50 is 256 nM.

CN1C(=O)c2c(O)c(=O)ccn2N2C(c3ccccc3F)CCCC12 (single isomer, unassigned) [Compound 8A, 1-(2-fluorophenyl)-7-hydroxy-5-methyl-1,2,3,4,4a,5-hexahydrodipyrido[1,2-b:2′,1′-f][1,2,4]triazine-6,8-dione] was tested. Which EC50 did it give?
Its EC50 is greater than 8100 nM.

How did the EC50 turn out when CN1C(=O)c2c(O)c(=O)ccn2N2C(c3ccccc3F)CCCC12 (single isomer, unassigned) [Compound 8B, 1-(2-fluorophenyl)-7-hydroxy-5-methyl-1,2,3,4,4a,5-hexahydrodipyrido[1,2-b:2′,1′-f][1,2,4]triazine-6,8-dione] was run?
Its EC50 is 65.6 nM.

Which EC50 does the source give for CN1C(=O)c2c(O)c(=O)ccn2N2C(c3ccccc3)C3CCC(C3)C12 (single isomer, unassigned) [Compound 9A, 4-hydroxy-6-methyl-11-phenyl-6a,7,8,9,10,11-hexahydro-3H-7,10-methanopyrido[1′,2′:1,6][1,2,4]triazino[2,3-a]azepine-3,5(6H)-dione] here?
The EC50 was 6210 nM.

For CN1C(=O)c2c(O)c(=O)ccn2N2C(c3ccccc3)C3CCC(C3)C12 (single isomer, unassigned) [Compound 9B, 4-hydroxy-6-methyl-11-phenyl-6a,7,8,9,10,11-hexahydro-3H-7,10-methanopyrido[1′,2′:1,6][1,2,4]triazino[2,3-a]azepine-3,5(6H)-dione], which EC50 is on record?
The EC50 was 166 nM.

With CN1C(=O)c2c(O)c(=O)ccn2N2C(c3ccccc3)C3CCC(C3)C12 (single isomer, unassigned) [Compound 9C, 4-hydroxy-6-methyl-11-phenyl-6a,7,8,9,10,11-hexahydro-3H-7,10-methanopyrido[1′,2′:1,6][1,2,4]triazino[2,3-a]azepine-3,5(6H)-dione] as the compound, how does the EC50 read?
Its EC50 is greater than 8100 nM.

CN1C(=O)c2c(O)c(=O)ccn2N2C(c3ccccc3)C3CCC(C3)C12 (single isomer, unassigned) [Compound 9D, 4-hydroxy-6-methyl-11-phenyl-6a,7,8,9,10,11-hexahydro-3H-7,10-methanopyrido[1′,2′:1,6][1,2,4]triazino[2,3-a]azepine-3,5(6H)-dione] was tested. Which EC50 did it give?
Its EC50 is greater than 8100 nM.

With CN1C(=O)c2c(O)c(=O)ccn2N2C(c3cccc(F)c3)CCCC12 (single isomer, unassigned) [Compound 10A, 1-(3-fluorophenyl)-7-hydroxy-5-methyl-1,2,3,4,4a,5-hexahydrodipyrido[1,2-b:2′,1′-f][1,2,4]triazine-6,8-dione] as the compound, how does the EC50 read?
The EC50 was 1610 nM.

For CN1C(=O)c2c(O)c(=O)ccn2N2C(c3cccc(F)c3)CCCC12 (single isomer, unassigned) [Compound 10B, 1-(3-fluorophenyl)-7-hydroxy-5-methyl-1,2,3,4,4a,5-hexahydrodipyrido[1,2-b:2′,1′-f][1,2,4]triazine-6,8-dione], which EC50 is on record?
Its EC50 is 86.5 nM.

For CN1C(=O)c2c(O)c(=O)ccn2N2C(c3ccccc3)C3CCCC(C3)C12 (single isomer, unassigned) [Compound 11B, 4-hydroxy-6-methyl-12-phenyl-6,6a,7,8,9,10,11,12-octahydro-7,11-methanopyrido[1′,2′:1,6][1,2,4]triazino[2,3-a]azocine-3,5-dione], which EC50 is on record?
Its EC50 is greater than 8100 nM.

How did the EC50 turn out when CN1C(=O)c2c(O)c(=O)ccn2N2C(c3cccc(OC(F)F)c3)CCCC12 (single isomer, unassigned) [Compound 12B, 1-(3-(difluoromethoxy)phenyl)-7-hydroxy-5-methyl-1,2,3,4,4a,5-hexahydrodipyrido[1,2-b:2′,1′-f][1,2,4]triazine-6,8-dione] was run?
Its EC50 is greater than 8100 nM.

For CN1C(=O)c2c(O)c(=O)ccn2N2C(c3cc(F)ccc3C(F)(F)F)CCCC12 (single isomer, unassigned) [Compound 13A, 1-(5-fluoro-2-(trifluoromethyl)phenyl)-7-hydroxy-5-methyl-1,2,3,4,4a,5-hexahydro-dipyrido[1,2-b:2′,1′-f][1,2,4]triazine-6,8-dione], which EC50 is on record?
Its EC50 is greater than 8100 nM.

Which EC50 does the source give for CN1C(=O)c2c(O)c(=O)ccn2N2C(c3cc(F)ccc3C(F)(F)F)CCCC12 (single isomer, unassigned) [Compound 13B, 1-(5-fluoro-2-(trifluoromethyl)phenyl)-7-hydroxy-5-methyl-1,2,3,4,4a,5-hexahydro-dipyrido[1,2-b:2′,1′-f][1,2,4]triazine-6,8-dione] here?
Its EC50 is 783 nM.

Which EC50 does the source give for CN1C(=O)c2c(O)c(=O)ccn2N2C(c3ccccc3C(F)(F)F)CCCC12 (single isomer, unassigned) [Compound 14B, 7-hydroxy-5-methyl-1-(2-(trifluoromethyl)phenyl)-1,2,3,4,4a,5-hexahydrodipyrido[1,2-b:2′,1′-f][1,2,4]triazine-6,8-dione] here?
Its EC50 is greater than 8100 nM.

same assay, conditions: MDCK, 48 h

How did the EC50 turn out when COCCN1C(=O)c2c(O)c(=O)ccn2N2C(c3ccc(F)cc3)CCCC12 (single isomer, unassigned) [Compound 4A, 1-(4-fluorophenyl)-7-hydroxy-5-(2-methoxyethyl)-1,2,3,4,4a,5-hexahydrodipyrido[1,2-b:2′,1′-f][1,2,4]triazine-6,8-dione] was run?
Its EC50 is greater than 8100 nM.

With CN1C(=O)c2c(O)c(=O)ccn2N2C(c3cccc4ccccc34)CCCC12 (single isomer, unassigned) [Compound 5A, 7-hydroxy-5-methyl-1-(naphthalen-1-yl)-1,2,3,4,4a,5-hexahydrodipyrido[1,2-b:2′,1′-f][1,2,4]triazine-6,8-dione] as the compound, how does the EC50 read?
The EC50 was 1530 nM.

For CN1C(=O)c2c(O)c(=O)ccn2N2C(c3ccccc3)C3CCCC(C3)C12 (single isomer, unassigned) [Compound 11A, 4-hydroxy-6-methyl-12-phenyl-6,6a,7,8,9,10,11,12-octahydro-7,11-methanopyrido[1′,2′:1,6][1,2,4]triazino[2,3-a]azocine-3,5-dione], which EC50 is on record?
The EC50 was greater than 8100 nM.

How did the EC50 turn out when CN1C(=O)c2c(O)c(=O)ccn2N2C(c3cccc(OC(F)F)c3)CCCC12 (single isomer, unassigned) [Compound 12A, 1-(3-(difluoromethoxy)phenyl)-7-hydroxy-5-methyl-1,2,3,4,4a,5-hexahydrodipyrido[1,2-b:2′,1′-f][1,2,4]triazine-6,8-dione] was run?
The EC50 was greater than 8100 nM.

With CN1C(=O)c2c(O)c(=O)ccn2N2C(c3ccccc3C(F)(F)F)CCCC12 (single isomer, unassigned) [Compound 14A, 7-hydroxy-5-methyl-1-(2-(trifluoromethyl)phenyl)-1,2,3,4,4a,5-hexahydrodipyrido[1,2-b:2′,1′-f][1,2,4]triazine-6,8-dione] as the compound, how does the EC50 read?
The EC50 was greater than 8100 nM.

Reference: patent publication US20240018145A1, “[…]-DEPENDENT EN[…] TREATING OR […]” (priority 2020, published 2024)
